Patent publication US7705030B2, “Amino-5-(5-membered)hetero-arylimidazolone compounds and the use thereof for β-secretase modulation” (Wyeth LLC, priority 2005, dated 2010)

How the values were obtained:
human BACE1 = human BACE1 (Homo sapiens, UniProt P56817); assay: Fluorescent kinetic assay: Evaluation of BACE-1 Binding Affinity of Test Compounds; format: biochemical; conditions: 10 nM enzyme, 25 μM substrate WABC-6, 50 mM Na-Acetate pH 4.5, room temperature
Outline: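 Run with 10 nM human BACE1 and 25 μM WABC-6 FRET peptide in 50 mM Na-acetate pH 4.5, 0.05% CHAPS, 25% PBS at room temperature. Fluorescence (ex 320/em 420 nm) was read every 40 sec for 30 min, and initial cleavage rates were taken from linear slopes across ≥10 inhibitor concentrations.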

Chain of human BACE1 (P56817 46-501): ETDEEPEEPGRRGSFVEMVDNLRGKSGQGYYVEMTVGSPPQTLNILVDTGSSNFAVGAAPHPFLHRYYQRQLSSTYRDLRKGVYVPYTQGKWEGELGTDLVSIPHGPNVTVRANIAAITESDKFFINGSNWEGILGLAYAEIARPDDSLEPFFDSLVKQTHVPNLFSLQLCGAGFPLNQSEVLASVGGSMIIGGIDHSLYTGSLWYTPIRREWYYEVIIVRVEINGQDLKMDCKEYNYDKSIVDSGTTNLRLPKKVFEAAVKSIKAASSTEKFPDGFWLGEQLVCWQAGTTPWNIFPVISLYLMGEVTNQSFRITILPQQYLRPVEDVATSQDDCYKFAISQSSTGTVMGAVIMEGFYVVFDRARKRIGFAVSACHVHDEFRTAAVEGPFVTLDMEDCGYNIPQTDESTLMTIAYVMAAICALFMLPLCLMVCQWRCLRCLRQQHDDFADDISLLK

With `CCn1cc(C2(c3cccc(-c4cccnc4F)c3)N=C(N)N(C)C2=O)cc1C=O` (stereo not shown) [Example 233, 4-[2-amino-4-[3-(2-fluoropyridin-3-yl)phenyl]-1-methyl-5-oxo-4,5-dihydro-1H-imidazol-4-yl]-1-ethyl-1H-pyrrole-2-carbaldehyde] the IC50 (human BACE1) was 0.01 to 0.1 µM and the melting point was 198 to 201 °C.
`CCC(=O)c1cc(C2(c3cccc(-c4cccnc4F)c3)N=C(N)N(C)C2=O)cn1CCCCF` (stereo not shown) [Example 178] gave an IC50 (human BACE1) of 0.01 to 0.1 µM and a melting point of 105 °C.
For `CN1C(=O)C(c2ccc(F)c(-c3cncnc3)c2)(c2cnn(CC(F)(F)F)c2)N=C1N` (stereo not shown) [Example 8, 2-Amino-5-(4-fluoro-3-pyrimidin-5-ylphenyl)-3-methyl-5-[1-(2,2,2-trifluoroethyl)-1H-pyrazol-4-yl]-3,5-dihydro-4H-imidazol-4-one], the IC50 (human BACE1) was 0.11 to 1 µM and the melting point was 115 to 117 °C.
Compound `CCn1cc(C2(c3cccc(-c4cccnc4F)c3)N=C(N)N(C)C2=O)cc1C(=O)C1CC1` (stereo not shown) [Example 172] has an IC50 (human BACE1) of 0.01 to 0.1 µM and a melting point of 98 to 100 °C.
Compound `CCn1cc(C2(c3cccc(-c4cccnc4F)c3)N=C(N)N(C)C2=O)cc1C(=O)NC1CCCC1` (stereo not shown) [Example 162] has an IC50 (human BACE1) of 0.11 to 1 µM and a melting point of 127 to 128 °C.
In the case of `COC(=O)c1cc(C2(c3cccc(-c4ccc(F)nc4)c3)N=C(N)N(C)C2=O)cn1CCF` (stereo not shown) [Example 191], the IC50 (human BACE1) is reported as 0.01 to 0.1 µM and the melting point is reported as 206 to 210 °C.
In the case of `CN1C(=O)C(c2ccc(OC(F)F)cc2)(c2cnn(CCF)c2)N=C1N` (stereo not shown) [Example 73], the IC50 (human BACE1) is reported as over 1 µM and the melting point is reported as 140 to 142 °C.
For `CN1C(=O)C(c2cccc(-c3cncnc3)c2)(c2cc(C#N)n(C)c2)N=C1N` (stereo not shown) [Example 225, 4-[2-Amino-1-methyl-5-oxo-4-(3-pyrimidin-5-ylphenyl)-4,5-dihydro-1H-imidazol-4-yl]-1-methyl-1H-pyrrole-2-carbonitrile], the IC50 (human BACE1) was 0.11 to 1 µM and the melting point was 214 to 225 °C.
`CN1C(=O)C(c2cccc(-c3cccnc3F)c2)(c2cc(C#N)n(CCF)c2)N=C1N` (stereo not shown) [Example 231] gave an IC50 (human BACE1) of 0.01 to 0.1 µM and a melting point of 175 to 177 °C.
`CCC(=O)c1cc(C2(c3cccc(-c4cccnc4F)c3)N=C(N)N(C)C2=O)cn1CCCC(F)(F)F` (stereo not shown) [Example 176] showed an IC50 (human BACE1) of 0.01 to 0.1 µM and a melting point of 91 to 94 °C.
Work on `CCC(=O)c1cc(C2(c3cccc(OCCC(C)(C)C)c3)N=C(N)N(C)C2=O)cn1CC` (stereo not shown) [Example 134] yielded an IC50 (human BACE1) of 0.11 to 1 µM and a melting point of 93 °C.
With `CN1C(=O)C(c2cccc(-c3cncnc3)c2)(c2csc(Cl)c2)N=C1N` (stereo not shown) [Example 32] the IC50 (human BACE1) was 0.01 to 0.1 µM and the melting point was 236 to 240 °C.
For `CC(C)CCn1cc(C2(c3cccc(-c4cncnc4)c3)N=C(N)N(C)C2=O)cn1` (stereo not shown) [Example 108], the IC50 (human BACE1) was 0.01 to 0.1 µM and the melting point was 87 to 90 °C.
Work on `CCn1cc(C2(c3cccc(-c4cccnc4F)c3)N=C(N)N(C)C2=O)cc1C(=O)N1CCCCC1` (stereo not shown) [Example 163] yielded an IC50 (human BACE1) of 0.01 to 0.1 µM and a melting point of 111 to 113 °C.
For `CN1C(=O)C(c2ccsc2)(c2cccc(-c3cnccn3)c2)N=C1N` (stereo not shown) [Example 33], the IC50 (human BACE1) was 0.01 to 0.1 µM and the melting point was 223 °C.
Compound `CC(C)COc1cccc(C2(c3ccsc3)N=C(N)N(C)C2=O)c1` (stereo not shown) [Example 148] has an IC50 (human BACE1) of 0.11 to 1 µM and a melting point of 70 to 73 °C.
Compound `CN1C(=O)C(c2cccc(-c3cncnc3)c2)(c2cc(C#N)n(CCF)c2)N=C1N` (stereo not shown) [Example 228] has an IC50 (human BACE1) of 0.11 to 1 µM and a melting point of 193 to 194 °C.
